The source of these data is patent US11020358B2, “Method for the anti-senescence of and/or rejuvenating stem cells” (GWO XI STEM CELL APPLIED TECHNOLOGY CO., LTD., priority 2014, dated 2021).

Each structure is given as a SMILES string.

For this series, the system named is Wister rats. The series can be described thus: Liver fibrosis rat model: biochemical functional indexes of cardiac blood. Type of series: in vivo. The conditions noted are these: 200 mg/kg TAA i.p. once every three days for 60 days, cardiac blood 4 days after last injection. As for the experimental part:
200 mg/kg of thioacetamide (TAA) was intraperitoneally injected to 8-week-old male Wister rats (n=35) once every three days for 60 days (i.e., 20 injections in total) to obtain a liver fibrosis rat model (hereinafter referred to as the “TAA group” rat). Additionally, rats that injected with equal volume of normal saline but not TAA were served as a “control group” (n=12). At 4 days after the last injection, four rats in the “control group” and three rats in the “TAA group” were anesthetized with ether and analyzed by the following experiments.
The cardiac blood of the “control group” and “TAA group” rats was collected and measured by a biochemical analyzer (Roche, Integra 800) to analyze the biochemical functional indexes, and thereby, evaluating the extent of hepatic damage. The biochemical functional indexes include the expression level of glutamate oxaloacetate transaminase (GOT), the expression level of glutamate pyruvate transaminase (GPT), the expression level of albumin, the expression level of total bilirubin, and prothrombin time.

In the case of `CC(=N)S` [TAA, thioacetamide], the Albumin amounted to 2.8 ± 0.4 g/dL, the GOT is recorded as 546 ± 48 Units/L, the GPT was 138 ± 47 Units/L and the Prothrombin time came out at 16.4 ± 3.0 s. This compound yielded a Total bilirubin of 0.049 ± 0.009 mg/dL.
